Source: patent publication US20180057505A1, “BICYCLIC HETEROARYL COMPOUNDS USEFUL AS INHIBITORS OF THE PAR-2 SIGNALING PATHWAY” (VERTEX PHARMACEUTICALS INCORPORATED, priority 2015, published 2018)

What was measured:
Assay type in all cases: cell-based
PAR2 (HT-29 cells) [1] = molecular target: T1, PAR2 (HT-29 cells) (Homo sapiens, UniProt P55085); experiment: Ca FLIPR TETRA assay, ANTAGONIST mode, activator 8 μM SLIGKV; conditions: HT-29 cells, activator 8 μM SLIGKV; maximal antagonist concentration per Method (A: 0.1, 1 or 2 μM; B: 50 μM)
T1 construct: host or cells: HT-29
T1 sequence (P55085 26-397): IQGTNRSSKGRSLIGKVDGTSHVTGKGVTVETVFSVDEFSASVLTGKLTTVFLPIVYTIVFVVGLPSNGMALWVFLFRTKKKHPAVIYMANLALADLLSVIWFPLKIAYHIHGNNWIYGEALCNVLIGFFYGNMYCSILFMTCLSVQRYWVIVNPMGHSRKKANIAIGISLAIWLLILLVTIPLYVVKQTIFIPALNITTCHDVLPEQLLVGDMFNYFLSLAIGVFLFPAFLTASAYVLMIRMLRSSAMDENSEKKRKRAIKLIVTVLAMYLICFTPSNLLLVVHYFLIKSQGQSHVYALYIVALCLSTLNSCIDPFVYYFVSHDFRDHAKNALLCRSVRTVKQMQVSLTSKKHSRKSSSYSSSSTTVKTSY
Summary of the method: (§1)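 HT-29 cells plated overnight at 37 °C in 1% FBS/McCoy's, loaded with calcium 5 dye (45 min 37 °C, 15 min r.t.), then preincubated with compounds 30 min at r.t. before a fixed activator challenge. Intracellular Ca2+ read by FLIPR Tetra; a first read checks compound-alone activation.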

PAR2 (HT-29 cells) [2] = molecular target: T1, PAR2 (HT-29 cells); experiment: Ca FLIPR TETRA assay, ANTAGONIST mode, activator 3.1 U/mL trypsin; conditions: HT-29 cells, activator 3.1 U/mL trypsin; maximal antagonist concentration per Method (A: 0.1, 1 or 2 μM; B: 50 μM)
Summary of the method: as §1

[3] = test system: Thrombin-stimulated Ca2+ response in HT-29 cells; experiment: Ca FLIPR TETRA assay, ANTAGONIST mode, activator 1 U/mL Thrombin; conditions: HT-29 cells, activator 1 U/mL Thrombin
Summary of the method: as §1

[4] = test system: UTP-stimulated Ca2+ response in HT-29 cells; experiment: Ca FLIPR TETRA assay, ANTAGONIST mode, activator 0.6 μM UTP; conditions: HT-29 cells, activator 0.6 μM UTP
Summary of the method: as §1

| SMILES | IC50 (PAR2 (HT-29 cells) [1]) | IC50 (PAR2 (HT-29 cells) [2]) | IC50 ([3]; Homo sapiens) | IC50 ([4]; Homo sapiens) | IC50 [3] | IC50 [4] |
| --- | --- | --- | --- | --- | --- | --- |
| Cc1n[nH]cc1N1CCN(C(=O)c2cc3nc(-c4ccc(F)cc4)cc(C(C)(C)C)c3o2)C(C)(C)C1=O [Example I-250] | 15 nM | 51 nM | > 2000 nM | > 2000 nM |  |  |
| CC1(C)CCC(c2cc(-c3ccc(F)cc3)nc3cc(C(=O)N4CCNC(=O)C4(C)C)oc23)CC1 [Example I-251] | > 2000 nM | > 2000 nM |  |  | > 2000 nM | > 2000 nM |
| CC(C)(C)c1cc(-c2ccc(Cl)c(F)c2)nc2cc(C(=O)N3CCN(C(=O)c4ccc(C(=O)O)nc4)CC3(C)C)oc12 [Example I-252] | 120 nM | 140 nM | > 2000 nM | > 2000 nM |  |  |
| CC(C)(C)c1cc(-c2ccc(Cl)c(F)c2)nc2cc(C(=O)N3CCN(c4cccc(C(=O)O[C@@H]5OC(C(=O)O)[C@@H](O)C(O)[C@@H]5O)n4)CC3(C)C)oc12 (stereo partly drawn) [Example I-253, (3S,5S,6S)-6-[6-[4-[7-tert-butyl-5-(4-chloro-3-fluoro-phenyl)furo[3,2-b]pyridine-2-carbonyl]-3,3-dimethyl-piperazin-1-yl]pyridine-2-carbonyl]oxy-3,4,5-trihydroxy-tetrahydropyran-2-carboxylic acid] | 3.5 nM | 9.5 nM | > 2000 nM | > 2000 nM |  |  |
| CC1(C)CCC(c2cc(C(C)(C)C)c3oc(C(=O)N4CCN(C(=O)C5CCC(C(=O)O)O5)CC4(C)C)cc3n2)CC1 (stereo not drawn) [Example I-254] | 8.5 nM | 20 nM | > 2000 nM | > 2000 nM |  |  |
| CC(C)(C)c1cc(-c2ccc(Cl)c(F)c2)nc2cc(C(=O)N3CCN(C(=O)C4CCC(C(=O)O)O4)CC3(C)C)oc12 (stereo not drawn) [Example I-255] | 11 nM | 13 nM | > 2000 nM | > 2000 nM |  |  |
| CC(C)(C)c1cc(-c2ccc(Cl)cc2)nc2cc(C(=O)N3CCN(C(=O)C4CCC(C(=O)O)O4)CC3(C)C)oc12 (stereo not drawn) [Example I-256] | 22 nM | 31 nM | > 2000 nM | > 2000 nM |  |  |
| CC(C)(C)c1cc(-c2ccc(Cl)c(F)c2)nc2cc(C(=O)N3CCN(C(=O)c4cccnc4)CC3(C)C)oc12 [Example I-257] | 210 nM | 180 nM |  |  | > 2000 nM | > 2000 nM |
| CC1(C)CCC(c2cc(C(C)(C)C)c3oc(C(=O)N4CCN(c5cn[nH]c5)CC4(C)C)cc3n2)CC1 [Example I-258] | 23 nM | 17 nM | > 2000 nM | > 2000 nM |  |  |
| CC(C)(C)c1cc(-c2ccc(Cl)c(F)c2)nc2cc(C(=O)N3CCN(c4cn[nH]c4)CC3(C)C)oc12 [Example I-259] | 8 nM | 7.9 nM | > 2000 nM | > 2000 nM |  |  |
| CC(C)(C)c1cc(-c2ccc(Cl)c(F)c2)nc2cc(C(=O)N3CCN(c4cn[nH]c4)C(=O)C3(C)C)oc12 [Example I-260] | 3.3 nM | 4.4 nM | > 2000 nM | > 2000 nM |  |  |
| CC(C)(C)c1cc(-c2ccc(Cl)c(F)c2)nc2cc(C(=O)N3CCN(c4ccnc(C(=O)O)c4)CC3(C)C)oc12 [Example I-261] | 45 nM | 31 nM | > 2000 nM | > 2000 nM |  |  |
| CC(C)(C)c1cc(-c2ccc(Cl)cc2)nc2cc(C(=O)N3CCN(c4ccncc4)CC3(C)C)oc12 [Example I-262] | 770 nM | 1900 nM | > 2000 nM | > 2000 nM |  |  |
| Cc1ccc(N2CCN(C(=O)c3cc4nc(-c5ccc(Cl)cc5)cc(C(C)(C)C)c4o3)C(C)(C)C2)nn1 [Example I-263] | 2.6 nM | 3.9 nM | > 2000 nM | > 2000 nM |  |  |
| Cc1cnc(N2CCN(C(=O)c3cc4nc(-c5ccc(Cl)cc5)cc(C(C)(C)C)c4o3)C(C)(C)C2)cn1 [Example I-264] | 15 nM | 18 nM | > 2000 nM | > 2000 nM |  |  |
